Tests used:
[1] = tested on: TGF-β signaling (TGF-β pSMAD, MPC-11); experiment: AlphaScreen SureFire SMAD3 (p-Ser423/425) assay, inhibition of TGF-β signaling; format: cell-based; conditions: Mus musculus, MPC-11, inhibition of TGF-β signaling, p-SMAD3 readout
[2] = tested on: GDF8 signaling (GDF pSMAD, MPC11); experiment: AlphaScreen SureFire SMAD3 (p-Ser423/425) assay, inhibition of GDF8 signaling; format: cell-based; conditions: Mus musculus, MPC-11, inhibition of GDF8 signaling, p-SMAD3 readout

Structure (SMILES) | IC50 [1] [nM] | IC50 [2] [nM]
Cc1nc(-c2cccc(Cl)c2)c(-c2ccc3ncnn3c2)[nH]1 [Compound 103, 6-(4-(3-Chlorophenyl)-2-methyl-1H-imidazol-5-yl)-[1,2,4]triazolo[1,5-a]pyridine] | 690 | 130
Cc1nc(-c2cc(F)c(F)c(F)c2)c(-c2ccc3nccn3c2)[nH]1 [Compound 94, 6-(2-Methyl-4-(3,4,5-trifluorophenyl)-1H-imidazol-5-yl)imidazo[1,2-a]pyridine] | 2910 | 580
Cc1cccc(-c2ncsc2-c2ccc3ncsc3c2)c1 [Compound 161, 6-(4-(m-tolyl)thiazol-5-yl)benzo[d]thiazole] | 427 | 46.8
Cc1nc(-c2cc(F)c(F)c(F)c2)c(-c2ccc3[nH]ncc3c2)[nH]1 [Compound 90, 5-(2-Methyl-4-(3,4,5-trifluorophenyl)-1H-imidazol-5-yl)-1H-indazole] | 3560 | 630
Cc1cccc(-c2nc(C)n(C)c2-c2ccc3ncsc3c2)c1 [Compound 59, 6-(1,2-Dimethyl-4-(m-tolyl)-1H-imidazol-5-yl)benzo[d]thiazole] | 6750 | 690
Cc1nc(-c2ccc(F)cc2)c(-c2ccc3nccn3c2)[nH]1 [Compound 81, 6-(4-(4-Fluorophenyl)-2-methyl-1H-imidazol-5-yl)imidazo[1,2-a]pyridine] | 2620 | 390
Cc1nc(-c2ccc(F)cc2)c(-c2ccc3[nH]ncc3c2)[nH]1 [Compound 77, 5-(4-(4-Fluorophenyl)-2-methyl-1H-imidazol-5-yl)-1H-indazole] | 1430 | 220
CCc1nc(-c2cccc(Cl)c2)c(-c2ccc3nccn3c2)[nH]1 [Compound 127, 6-(4-(3-Chlorophenyl)-2-ethyl-1H-imidazol-5-yl)imidazo[1,2-a]pyridine] | 570 | 190
CCc1nc(-c2cccc(C)c2)c(-c2ccc3ncsc3c2)[nH]1 [Compound 116, 6-(2-Ethyl-4-(m-tolyl)-1H-imidazol-5-yl)benzo[d]thiazole] | 1520 | 280
CCc1nc(-c2cccc(F)c2)c(-c2ccc3ncnn3c2)[nH]1 [Compound 136, 6-(2-Ethyl-4-(3-fluorophenyl)-1H-imidazol-5-yl)-[1,2,4]triazolo[1,5-a]pyridine] | 2300 | 750
CCc1nc(-c2cccc(C)c2)c(-c2ccc3ncnn3c2)[nH]1 [Compound 115, 6-(2-Ethyl-4-(m-tolyl)-1H-imidazol-5-yl)-[1,2,4]triazolo[1,5-a]pyridine] | 750 | 160
Cc1cc(-c2nc(C)n(C)c2-c2ccc3ncn(C)c3c2)ccc1F [Compound 54, 6-(4-(4-Fluoro-3-methylphenyl)-1,2-dimethyl-1H-imidazol-5-yl)-1-methyl-1H-benzo[d]imidazole] | 3100 | 410
Cc1nc(-c2ccc(F)cc2)c(-c2ccc3nccnc3c2)[nH]1 [Compound 82, 6-(4-(4-Fluorophenyl)-2-methyl-1H-imidazol-5-yl)quinoxaline] | 3270 | 480
Cc1cccc(-c2nc[nH]c2-c2ccc3nccn3c2)c1 [Compound 19, 6-(4-(m-Tolyl)-1H-imidazol-5-yl)imidazo[1,2-a]pyridine] | 730 | 150
Cn1cnc(-c2ccc(F)c(F)c2)c1-c1ccc2ncsc2c1 [Compound 67, 6-(4-(3,4-Difluorophenyl)-1-methyl-1H-imidazol-5-yl)benzo[d]thiazole] | 1680 | 580
CCc1nc(-c2ccc(F)c(F)c2)c(-c2ccc3ncsc3c2)[nH]1 [Compound 133, 6-(4-(3,4-Difluorophenyl)-2-ethyl-1H-imidazol-5-yl)benzo[d]thiazole] | 2210 | 360
COc1ccc(-c2nc(N)sc2-c2ccc3nccnc3c2)cc1 [Compound 182, 4-(4-methoxyphenyl)-5-(quinoxalin-6-yl)thiazol-2-amine] | 1120 | 352
CCc1nc(-c2cc(C)cc(F)c2)c(-c2ccc3ncsc3c2)[nH]1 [Compound 145, 6-(2-Ethyl-4-(3-fluoro-5-methylphenyl)-1H-imidazol-5-yl)benzo[d]thiazole] | 2950 | 530
Cc1nc(-c2ccc(F)c(F)c2)c(-c2ccc3nccn3c2)[nH]1 [Compound 87, 6-(4-(3,4-Difluorophenyl)-2-methyl-1H-imidazol-5-yl)imidazo[1,2-a]pyridine] | 3460 | 330
CCc1nc(-c2cc(F)cc(Cl)c2)c(-c2ccc3nccnc3c2)[nH]1 [Compound 141, 6-(4-(3-Chloro-5-fluorophenyl)-2-ethyl-1H-imidazol-5-yl)quinoxaline] | 2910 | 660
CCc1nc(-c2cccc(F)c2)c(-c2ccc3ncsc3c2)[nH]1 [Compound 137, 6-(2-Ethyl-4-(3-fluorophenyl)-1H-imidazol-5-yl)benzo[d]thiazole] | 2540 | 570
Nc1nc(-c2cccc(C(F)(F)F)c2)c(-c2ccc3ncsc3c2)s1 [Compound 176, 5-(benzo[d]thiazol-6-yl)-4-(3-(trifluoromethyl)phenyl)thiazol-2-amine] | 600 | 158
Cc1nc(-c2ccc(F)c(F)c2)c(-c2ccc3cn[nH]c3c2)[nH]1 [Compound 84, 6-(4-(3,4-Difluorophenyl)-2-methyl-1H-imidazol-5-yl)-1H-indazole] | 2900 | 320
CCc1nc(-c2ccc(F)cc2)c(-c2ccc3nccn3c2)[nH]1 [Compound 123, 6-(2-Ethyl-4-(4-fluorophenyl)-1H-imidazol-5-yl)imidazo[1,2-a]pyridine] | 9370 | 740
Fc1ccc(-c2nc[nH]c2-c2ccc3nccn3c2)cc1 [Compound 14, 6-(4-(4-Fluorophenyl)-1H-imidazol-5-yl)imidazo[1,2-a]pyridine] | 1820 | 610
Cc1cccc(-c2ncn(C)c2-c2ccc3ncsc3c2)c1 [Compound 44, 6-(1-Methyl-4-(m-tolyl)-1H-imidazol-5-yl)benzo[d]thiazole] | 720 | 180
Cc1nc(-c2cc(F)c(F)c(F)c2)c(-c2ccc3cn[nH]c3c2)[nH]1 [Compound 91, 6-(2-Methyl-4-(3,4,5-trifluorophenyl)-1H-imidazol-5-yl)-1H-indazole] | 2230 | 390

More lines, in order of falling IC50 [1], values ahead:

IC50 [1] [nM] | IC50 [2] [nM] | Structure (SMILES)
423 | 109 | Nc1nc(-c2cccc(C(F)(F)F)c2)c(-c2ccc3nccn3c2)s1 [Compound 171, 5-(imidazo[1,2-a]pyridin-6-yl)-4-(3-(trifluoromethyl)phenyl)thiazol-2-amine]
400 | 80 | CCc1nc(-c2ccc(F)c(C)c2)c(-c2ccc3ncnn3c2)[nH]1 [Compound 108, 6-(2-Ethyl-4-(4-fluoro-3-methylphenyl)-1H-imidazol-5-yl)-[1,2,4]triazolo[1,5-a]pyridine]
390 | 190 | Clc1cccc(-c2nc[nH]c2-c2ccc3ncccc3c2)c1 [Compound 39, 6-(4-(3-Chlorophenyl)-1H-imidazol-5-yl)quinoline]
380 | 190 | Cc1cccc(-c2nc(C(C)C)[nH]c2-c2ccc3ncnn3c2)c1 [Compound 152, 6-(2-Isopropyl-4-(m-tolyl)-1H-imidazol-5-yl)-[1,2,4]triazolo[1,5-a]pyridine]
380 | 120 | Fc1ccc(-c2nc[nH]c2-c2ccc3ncsc3c2)cc1 [Compound 13, 6-(4-(4-Fluorophenyl)-1H-imidazol-5-yl)benzo[d]thiazole]
340 | 90 | CCc1nc(-c2cccc(Cl)c2)c(-c2ccc3ncsc3c2)[nH]1 [Compound 126, 6-(4-(3-Chlorophenyl)-2-ethyl-1H-imidazol-5-yl)benzo[d]thiazole]
270 | 90 | Cn1cnc(-c2ccc(F)c(F)c2)c1-c1ccc2[nH]ncc2c1 [Compound 64, 5-(4-(3,4-Difluorophenyl)-1-methyl-1H-imidazol-5-yl)-1H-indazole]
260 | 220 | Clc1cccc(-c2nc[nH]c2-c2ccc3nccn3c2)c1 [Compound 26, 6-(4-(3-Chlorophenyl)-1H-imidazol-5-yl)imidazo[1,2-a]pyridine]
215 | 78 | Cc1cc(-c2ncsc2-c2ccc3nccn3c2)ccc1F [Compound 167, 4-(4-fluoro-3-methylphenyl)-5-(imidazo[1,2-a]pyridin-6-yl)thiazole]
190 | 50 | Cc1nc(-c2cc(F)c(F)cc2F)c(-c2ccc3ncnn3c2)[nH]1 [Compound 98, 6-(2-Methyl-4-(2,4,5-trifluorophenyl)-1H-imidazol-5-yl)-[1,2,4]triazolo[1,5-a]pyridine]
140 | 50 | Cc1cccc(-c2nc[nH]c2-c2ccc3ncn(C)c3c2)c1 [Compound 17, 1-Methyl-6-(4-(m-tolyl)-1H-imidazol-5-yl)-1H-benzo[d]imidazole]
140 | 70 | Fc1ccc(-c2nc[nH]c2-c2ccc3ncsc3c2)cc1F [Compound 34, 6-(4-(3,4-Difluorophenyl)-1H-imidazol-5-yl)benzo[d]thiazole]
120 | 90 | Fc1cccc(-c2nc[nH]c2-c2ccc3[nH]ncc3c2)c1 [Compound 27, 5-(4-(3-Fluorophenyl)-1H-imidazol-5-yl)-1H-indazole]
60 | 10 | Cc1cccc(-c2nc[nH]c2-c2ccc3[nH]ncc3c2)c1 [Compound 15, 5-(4-(m-Tolyl)-1H-imidazol-5-yl)-1H-indazole]
60 | 10 | Fc1ccc(-c2nc[nH]c2-c2ccc3[nH]ncc3c2)cc1 [Compound 10, 5-(4-(4-Fluorophenyl)-1H-imidazol-5-yl)-1H-indazole]
10 | 10 | Cn1cnc2ccc(-c3[nH]cnc3-c3cccc(Cl)c3)cc21 [Compound 24, 6-(4-(3-Chlorophenyl)-1H-imidazol-5-yl)-1-methyl-1H-benzo[d]imidazole]

— patent US10287295B2, “TGF-β inhibitors” (Rigel Pharmaceuticals, Inc., priority 2015, dated 2019)
